Assay results from US4569910A, “Methods and reagents for pyranosone production” (Cetus Corporation, priority 1984, dated 1986).

Assays:
P. obtusus P2O = experiment: Relative activities of purified P. obtusus P2O on pyranose substrates; type: biochemical; details: about 1% (w/v) substrate concentration; D-glucose = 100
Experimental: The P2O enzyme preparation from Example II was purified further using DEAE chromatography in 30 mM TRIS-HCl, pH 8.5, containing 2 mM EDTA and 10 ug/ml PMSF. The sample was eluted from a 5×16 cm column using a gradient of 0-300 mM NaCl. P2O activity was monitored using the orthodianisidine colorometric assay for the peroxide co-product, essentially as described by Ruelius et al., Biochim et Biophys. Acta 167, 493-500 (1968). P2O activity eluted at about 50 mM NaCl. Fractions containing the peak activity were pooled and concentrated to 0.5 ml by ultrafiltration using Amicon filters obtained from Amicon Corp. (Danvers, MA). Biogel P300 was obtained from Biorad Laboratories (Richmond, CA). The sample was further purified by molecular sieve chromatography using a 1.5×95 cm Biogel P300 column in 100 mM sodium phosphate, pH 7 buffer. The P2O activity eluted at a sharp peak corresponding to an apparent native molecular weight of about 290,000 daltons.
The enzyme appears to contain one covalently bound flavin molecule per subunit (detectable as UV-fluorescence in the 68,000 dalton SDS-PAGE band), and has absorption maxima at 276, 357 and 456 nm. The enzyme has a sedimentation coefficient of about 11.4, as determined by sucrose gradient ultracentrifugation. The relative activities of the enzyme, on D-glucose, L-sorbose, D-xylose, and D-gluconolactone are 100: 80: 48: 12, respectively, at about 1% (w/v) substrate concentration. As noted above with respect to FIG. 2, the enzyme has a broad pH optimum of between about 4.5 and 5.5.

C. versicolor P2O = target: T1, C. versicolor P2O (Trametes versicolor, UniProt P79076); experiment: Relative activities of purified C. versicolor P2O on pyranose substrates; type: biochemical; details: 1% (w/v) substrate concentration; D-glucose = 100
T1 construct: endogenous in cells; host or cells: Coriolus versicolor, own culture (NRRL 15152 / CMCC 0748, selected high producer; native enzyme, purified)
Experimental: The enzyme was applied to a 2.6×40 cm DEAE column, washed, and eluted using a 0-300 mM NaCl gradient. The P2O elutes at about 220 mM. Portions of each fraction were assayed for P2O activity, by monitoring peroxide generation conventionally. Protein concentration was also determined by a conventional method. The fractions containing P2O activity were pooled and concentrated by ultrafiltration with an Amicon PM10 filter obtained from Amicon Corp. Peak fractions were dialyzed into 30 mM sodium acetate (pH 5.5), adjusted to 1.5M NaCl and loaded onto a phenylsepharose column. The P2O was eluted with a 0-1.5M NaCl gradient in 50 mM sodium acetate, pH 5.5. The enzyme eluted at about 1.1M NaCl. Fractions containing the peak activity were pooled and concentrated to 0.5 ml by Amicon PM30 ultrafiltration and sized according to native molecular weight using a 1.5×95 cm Biogel P300 column. Elution was at 0.1 ml/minute with 100 mM sodium phosphate, pH 7.0. Using known molecular weight markers in the column, the enzyme's apparent native molecular weight was calculated to be about 130,000 daltons. A single band having a molecular weight of about 65,000 was observed when the enzyme was analyzed by SDS-PAGE. The enzyme thus appears to be a homodimer. The enzyme was judged to be about 95% pure, based on the staining intensity of protein bands in SDS-PAGE.
The relative activities of the enzyme on the substrates D-glucose, L-sorbose, D-xylose and delta-D-gluconolactone are 100: 74: 41: 6, respectively, at 1% (w/v) substrate concentration. The enzyme has a pH optimum of about 5.0.

L. betulinus P2O = experiment: Relative activities of purified L. betulinus P2O on pyranose substrates; type: biochemical; details: 20 mM substrate concentration; D-glucose = 100
Experimental: The resulting clear yellow supernatant was further purified using DEAE chromatography in 30 mM TRIS-HCl, pH 8.5, and eluted from the 5×16 cm column using a 0-300 mM NaCl gradient. The protein eluted at about 75 mM NaCl. Fractions containing the peak of P2O activity were pooled and concentrated to 0.5 ml by Amicon PM30 ultrafiltration, and then fractionated, according to native molecular weight, using a 1.5×95 cm Biogel P300 column. The column was run at a flow rate of 0.1 ml per minute, using 100 mM sodium phosphate, pH 7.0. The protein eluted in a fraction corresponding to an apparent native molecular weight of about 300,000 daltons. […] Based on the molecular weight data, the protein appears to be a homotetramer.
The enzyme contains a covalently attached flavin on each subunit, and has absorption maxima at 275, 360, and 450 nm. The relative activities of the purified enzyme on the pyranose substrates D-glucose, L-sorbose, D-xylose and delta-D-gluconolactone are 100: 43: 43: 26, respectively, at 20 mM substrate concentration. The enzyme has a broad pH optimum between about 5 and 6.

[1] = Nonenzymatic breakdown of purified glucosone (UV scans 200-350 nm; H2O2 effect); type: physicochemical; details: for Change of 310 nm peak (nonenzymatic breakdown): 0.5% glucosone solution, scans at one minute intervals
Experimental: The conversion of a pyranose to the corresponding pyranosone by P2O in the presence of oxygen is accompanied by the stoichiometric production of H2 O2. The H2 O2 produced in the reaction may promote oxidative degradation of the product. Studies performed in support of the present application indicate that nonenzymatic breakdown of glucosone to acidic products may be accelerated at H2 O2 concentrations above about 0.2 mM. More importantly, elevated H2 O2 concentrations produce relatively rapid inactivation of the P2O enzyme. The susceptibility of P2O to inactivation by elevated concentrations of H2 O2 in a continuous-flow reactor is described below in Example XIII. Briefly, four continuous-flow reactors containing different P2O/catalase activity ratios were run in the presence of pure glucose. The half-life of the P2O enzyme in each reactor was determined from the observed change in the amount of glucosone eluting from the reactor over a several-day reaction period. The measured half-lives of P2O expressed in arbitrary half-life units, are given in Example XIII, Table 1. As will be seen from the table, the presence of catalase, at a P2O/catalase activity ratio of less than about 10^-3 and preferably less than about 2×10^-4 (i.e., at an H2 O2 concentration of less than about 0.2mM) extends the measured P2O half-life 30-60 fold with respect to that of P2O reacted with glucose in the absence of catalase.
Secondly, studies indicate that pure glucosone undergoes relatively rapid, nonenzymatic breakdown above a pH of about 7.0. […] Immediately thereafter, the solution was scanned spectrophotometrically in the UV range between 200 and 350 nm, at one minute intervals.

O=C[C@H](O)[C@@H](O)[C@H](O)[C@H](O)CO [D-glucose]
Relative activity of the enzyme on substrate (P. obtusus P2O): 100 | Relative activity of the enzyme on substrate (C. versicolor P2O): 100 | Relative activity of the enzyme on substrate (L. betulinus P2O): 100

O=C[C@H](O)[C@@H](O)[C@H](O)CO [D-xylose]
Relative activity of the enzyme on substrate (P. obtusus P2O): 48 | Relative activity of the enzyme on substrate (C. versicolor P2O): 41 | Relative activity of the enzyme on substrate (L. betulinus P2O): 43

O=C(CO)[C@@H](O)[C@H](O)[C@@H](O)CO [L-sorbose]
Relative activity of the enzyme on substrate (P. obtusus P2O): 80 | Relative activity of the enzyme on substrate (C. versicolor P2O): 74 | Relative activity of the enzyme on substrate (L. betulinus P2O): 43

O=C1O[C@H](CO)[C@@H](O)[C@H](O)[C@H]1O [delta-D-gluconolactone, D-gluconic acid delta-lactone]
Relative activity of the enzyme on substrate (P. obtusus P2O): 12 | Relative activity of the enzyme on substrate (C. versicolor P2O): 6 | Relative activity of the enzyme on substrate (L. betulinus P2O): 26

O=CC(=O)[C@@H](O)[C@H](O)[C@H](O)CO [glucosone, D-arabino-2-hexosulose]
H2O2 concentration above which nonenzymatic breakdown to acidic products may be accelerated [1]: above 0.2 mM | Change of 310 nm peak (nonenzymatic breakdown) ([1]; pH 6.0): no initial peak at 310 nm was observed nor did one form | Change of 310 nm peak (nonenzymatic breakdown) ([1]; pH 7.0, buffered): increasing several-fold over a five minute period
